Reference: patent US20090196861A1, “Biocompatible Latent Emulsifiers” (BIOAVAILABILITY, INC., priority 2005, published 2009)

How the values were obtained:
[1] = Water solubility at neutral pH; format: physicochemical; details: inferred from pKa
Text: Rudnic et al. point out that short chain fatty acids are ionized at neutral pH, giving them a […] solubility, and imply that long chain fatty acids are not ionized and, thus, are even less soluble in water. […] Further, medium to long chain (C8 to C22) fatty acids have very limited water solubility; when mixing with water these fatty acids tend to separate from water completely just as oil or fat do.

[2] = measured to be as high as (Kanicky, 2002); cited from earlier work

CCCCCCCC/C=C\CCCCCCCC(=O)O [oleic acid]
water solubility [1]: essentially water insoluble | pKa [2]: ≤ 9.85
